# Experimental data: US20260133203A1, “DETECTION OF FUMARATE-DERIVED MODIFICATION IN A TEST SAMPLE” (UNIVERSITY OF SOUTH CAROLINA, priority 2017, published 2026)
# Counter-ions that a name gives are not always drawn.
# Legend:
# primary rat astrocytes = experiment: LC-MS/MS identification of succinated proteins in primary rat astrocytes; format: cell-based; details: 24 hours treatment with up to 100 μM DMF
# Procedure: Primary astrocytes were isolated and cultured from neonatal P1-P2 Sprague-Dawley rats. Animals were decapitated following which cortices, brainstem, and hippocampi were aseptically dissected in petri dishes filled with ice-cold Hanks' Balanced Salt Solution (Corning® HBSS; Sigma, St. Louis, MO), HEPES (10 mM; Sigma), and gentamicin sulfate (5 μg/mL; Life Technologies, Carlsbad, CA). The dissected tissue was cut into pieces and dissociated by trypsin treatment (10 μl/mL; Life Technologies, Carlsbad, CA), followed by trituration with sterile glass pipettes. Cells were plated in 24-well plates pre-coated with poly-l-lysine (50 μg/mL; Sigma). Cultures were maintained in DMEM/F12 (Life Technologies) medium supplemented with 10% fetal bovine serum (FBS) and stored in an incubator at 37° C. ([…]). […] After gel extraction, the peptides were re-suspended in 1% acetic acid and analyzed on a DionexTM […] system (Thermo ScientificTM, Rockford, IL) coupled to an Orbitrap Velos ProTM mass spectrometer (Thermo ScientificTM, Rockford, IL). […] The data-dependent acquisition (DDA) data were analyzed using Proteome DiscovererTM 1.4 software with SEQUEST search engine against the uniprot_ref_mouse database (2014-10-03 version, 52,474 proteins) or uniprot_ref_rat database (2011-5-11 version, 39765 proteins) with Xcorr>1 validation (+2) and an allowance for 2 missed cleavages. […]
# [1] = test system: N1E-115 neuroblastoma cells differentiated to a neuronal phenotype; experiment: Western blot detection of succinated proteins with anti-2SC antibody after KOH hydrolysis of the ester; format: cell-based, mouse; details: DMF for 24 hours, hydrolysis of the ester in the presence of KOH
# Procedure: N1E-115 cells (subclone N1E-115-1 neuroblastoma cells) were obtained from Sigma (08062511, St. Louis, MO). The cells were grown and expanded in non-differentiation medium (NDM): 90% DMEM (Gibco™, Grand Island, NY) with 25 mM glucose, no pyruvate, 25 mM HEPES, 4 mM glutamine and 10% fetal bovine serum (FBS, Atlanta Biologicals, Atlanta, GA). At 80% confluence, the cells were differentiated into neurons in the presence of 2% FBS and 1.25% dimethyl sulfoxide in DMEM for 5 days. In addition to the assessment of the neuronal phenotype by light microscopy, the detection of synaptophysin protein levels was used to confirm successful differentiation. During the final 6 or 24 hours of differentiation, the cells were treated with 10-100 µM DMF and harvested as described above for primary neurons, with the addition of phosphatase inhibitors to the DPBS washes and the RIPA buffer used for scraping to prevent dephosphorylation of CRMP-2. […] To ensure that the succinated proteins detected were solely of neuronal origin, N1E-115 neuroblastoma cells were differentiated to a neuronal phenotype (confirmed by increased synaptophysin content) and treated with DMF for 24 hours. […]
smiles,measurement,setting,value
"COC(=O)/C=C/C(=O)OC [DMF, dimethyl fumarate]",number of succinated protein subunits detected,primary rat astrocytes,11
same,detection of succinated proteins using the anti-2SC antibody,[1],detection of a large number of succinated proteins
